Data taken from ChEMBL document CHEMBL1201862, “PubChem BioAssay data set” (2004).
Calls of active or inactive are those of the source.

Key:
[1] = Luminescence Cell-Based Dose Confirmation HTS to Identify Inhibitors of Platelet Dense Granule Release. [Related pubchem assays: 1663 (Primary HTS), 1678 (Summary of Project)]; type: functional
[2] = alpha-synuclein stem-loop luciferase translation blockers – H4 neuroglioma cells, luminescence, confirmation (AID 1988); type: functional, cell-based
[3] = target: Latent membrane protein 1 (Human herpesvirus 4 (strain B95-8), UniProt P03230); experiment: LMP1 TES1 pathway selectivity over dsRED control – imaging, HEK293T, dual-color eGFP/dsRED, cherry-picks, selectivity assay for LMP1 NF-kB inhibitor project, dose response (AID 588398); type: functional, cell-based
[4] = target: Luciferin 4-monooxygenase (Photinus pyralis, UniProt P08659); experiment: inhibition of purified Photinus pyralis luciferase – biochemical, luminescence, dose response (AID 1891)
[5] = tested on: HEK293; experiment: EBV LMP1 TES2 canonical NF-kB signalling blockers – cell-based, HEK293, luciferase, cherry-pick, dose response (AID 588343); type: functional; settings: Homo sapiens
[6] = Luminescence Cell-Based Dose Response HTS to Identify Inhibitors of 5'UTR Stem-Loop Driven Prion Protein mRNA Translation in H4 Neuroglioblastoma Cells. [Related pubchem assays: 1827 (Project Summary), 1813 (Primary HTS)]; type: functional
[7] = tested on: HeLa; experiment: ATP-based viability loss in HeLa cells – cell-based, CellTiter-Glo luminescence, cherry-pick samples, cytotoxicity control for MITF activator project, dose response (AID 540259); type: functional; settings: Homo sapiens
[8] = target: T1, Aryl hydrocarbon receptor (Homo sapiens, UniProt P35869); settings: Potency;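 also: confirmatory quantitative high-throughput screen measuring activation of the AhR signaling pathway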
T1 sequence (P35869 whole entry): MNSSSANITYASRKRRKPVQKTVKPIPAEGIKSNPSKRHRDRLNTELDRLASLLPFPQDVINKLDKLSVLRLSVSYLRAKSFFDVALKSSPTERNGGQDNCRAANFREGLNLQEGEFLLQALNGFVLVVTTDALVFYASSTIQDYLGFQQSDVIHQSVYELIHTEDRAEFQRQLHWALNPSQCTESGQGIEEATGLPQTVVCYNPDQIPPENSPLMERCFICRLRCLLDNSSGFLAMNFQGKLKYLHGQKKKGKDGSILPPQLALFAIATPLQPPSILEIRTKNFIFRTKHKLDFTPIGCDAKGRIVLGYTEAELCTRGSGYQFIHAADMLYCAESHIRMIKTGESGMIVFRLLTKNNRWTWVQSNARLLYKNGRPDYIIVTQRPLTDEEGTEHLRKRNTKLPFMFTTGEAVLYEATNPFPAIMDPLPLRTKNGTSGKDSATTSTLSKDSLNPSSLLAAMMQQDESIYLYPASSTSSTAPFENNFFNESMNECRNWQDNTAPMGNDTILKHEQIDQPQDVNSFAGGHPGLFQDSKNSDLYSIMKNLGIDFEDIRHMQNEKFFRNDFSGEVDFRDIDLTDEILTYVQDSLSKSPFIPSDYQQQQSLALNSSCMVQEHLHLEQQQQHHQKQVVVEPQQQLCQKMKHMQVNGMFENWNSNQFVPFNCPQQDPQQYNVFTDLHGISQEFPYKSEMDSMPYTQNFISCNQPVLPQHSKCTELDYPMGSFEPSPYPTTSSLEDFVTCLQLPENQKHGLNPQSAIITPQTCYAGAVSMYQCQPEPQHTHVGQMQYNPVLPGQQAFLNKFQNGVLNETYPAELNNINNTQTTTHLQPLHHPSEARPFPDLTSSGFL

[9] = target: Voltage-gated inwardly rectifying potassium channel KCNH2 (Homo sapiens, UniProt Q12809); settings: Potency;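 also: confirmatory quantitative high-throughput screen measuring inhibition of hERG channel activity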
[10] = target: T2, Polyadenylate-binding protein 1 (Homo sapiens, UniProt P11940); experiment: MLLE binding blockers, Cy5 peptide tracer – biochemical, fluorescence polarization, Cy5-PAM2 peptide, secondary, miRNA deadenylation inhibitor project, dose response (AID 602260); type: functional; settings: read-out: IC50_Mean
[11] = target: Nonstructural protein 1 (Influenza A virus, UniProt Q194T2); type: functional, Influenza A virus (A/California/07/2009(H1N1))
[12] = target: T2, Polyadenylate-binding protein 1; experiment: MLLE domain peptide-binding blockers, IC50 – biochemical, fluorescence polarization, FITC-PAM2 peptide, dose response (AID 602259); type: functional; settings: read-out: IC50_Mean
[13] = MIN6 cell viability loss – mouse insulinoma, cytotoxicity control, dose response (AID 2122); type: functional;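 also: confirmatory high-throughput counterscreen run to flag cytotoxic compounds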
[14] = decrease of insulin promoter-GFP reporter – imaging, high-content screening, mouse beta cells (AID 1628); type: functional; settings: MIN6
[15] = target: Beta-galactosidase (Escherichia coli, UniProt Q8VNN2); experiment: PubChem AID 485352; type: functional
[16] = viability loss of HPDE-C7K cells – cell-based, fluorescence, HTS, primary screen (AID 431); type: functional; settings: Homo sapiens
[17] = HPDE-C7 pancreatic duct cell viability loss – fluorescence, HTS (AID 430); type: functional, cell-based; settings: Homo sapiens
[18] = Fluorescence-based cell-based high throughput dose response assay for inhibitors of the interaction of nucleotide-binding oligomerization domain containing 2 (NOD2) and the receptor-interacting serine-threonine kinase 2 (RIPK2).; type: functional; settings: Homo sapiens
[19] = target: T3, Type-1 angiotensin II receptor (Homo sapiens, UniProt P30556); experiment: antagonism of angiotensin II type 1 receptor – cell-based, uHTS hits, selectivity assay for APJ receptor antagonist project, dose response (AID 463214); type: functional;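 also: antagonist potency against angiotensin II stimulated AT1 response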
T3 sequence (P30556 whole entry): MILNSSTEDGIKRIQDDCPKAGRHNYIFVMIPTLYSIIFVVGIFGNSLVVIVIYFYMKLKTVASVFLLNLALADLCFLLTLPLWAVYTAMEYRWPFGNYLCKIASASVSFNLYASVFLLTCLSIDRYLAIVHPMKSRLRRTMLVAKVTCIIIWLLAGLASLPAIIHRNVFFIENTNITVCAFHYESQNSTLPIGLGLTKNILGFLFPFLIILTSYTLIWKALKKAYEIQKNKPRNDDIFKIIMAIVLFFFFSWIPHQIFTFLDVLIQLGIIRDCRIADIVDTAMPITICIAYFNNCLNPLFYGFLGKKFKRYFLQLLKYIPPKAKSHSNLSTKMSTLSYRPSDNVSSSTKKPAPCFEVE

[20] = viability loss in HeLa cells – cytotoxicity control for MgcRacGAP inhibitor project, dose response (AID 624300); type: functional
[21] = tested on: INS1; experiment: INS-1E survival protection against cytokine death – cell-based, luminescence, retest, dose response (AID 449756); type: functional; settings: Rattus norvegicus;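 also: cell death triggered by IL-1 beta plus TNF-alpha plus IFN-gamma mixture; protective hits raise ATP signal compared with cytokine alone wells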
[22] = target: Phospholipase D2 (Homo sapiens, UniProt O14939); experiment: cellular phospholipase D2 inhibition IC50 – cell-based, dose response (AID 602147); type: functional;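 also: cellular assay in HEK293 cells overexpressing GFP-tagged PLD2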
[23] = target: Phospholipase D1 (Homo sapiens, UniProt Q13393); experiment: cellular phospholipase D1 inhibition IC50 – cell-based, dose response (AID 602151); type: functional;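 also: cellular PLD1 assay in Calu-1 cells stimulated with PMA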
Chain of Phospholipase D1 (Q13393 whole entry): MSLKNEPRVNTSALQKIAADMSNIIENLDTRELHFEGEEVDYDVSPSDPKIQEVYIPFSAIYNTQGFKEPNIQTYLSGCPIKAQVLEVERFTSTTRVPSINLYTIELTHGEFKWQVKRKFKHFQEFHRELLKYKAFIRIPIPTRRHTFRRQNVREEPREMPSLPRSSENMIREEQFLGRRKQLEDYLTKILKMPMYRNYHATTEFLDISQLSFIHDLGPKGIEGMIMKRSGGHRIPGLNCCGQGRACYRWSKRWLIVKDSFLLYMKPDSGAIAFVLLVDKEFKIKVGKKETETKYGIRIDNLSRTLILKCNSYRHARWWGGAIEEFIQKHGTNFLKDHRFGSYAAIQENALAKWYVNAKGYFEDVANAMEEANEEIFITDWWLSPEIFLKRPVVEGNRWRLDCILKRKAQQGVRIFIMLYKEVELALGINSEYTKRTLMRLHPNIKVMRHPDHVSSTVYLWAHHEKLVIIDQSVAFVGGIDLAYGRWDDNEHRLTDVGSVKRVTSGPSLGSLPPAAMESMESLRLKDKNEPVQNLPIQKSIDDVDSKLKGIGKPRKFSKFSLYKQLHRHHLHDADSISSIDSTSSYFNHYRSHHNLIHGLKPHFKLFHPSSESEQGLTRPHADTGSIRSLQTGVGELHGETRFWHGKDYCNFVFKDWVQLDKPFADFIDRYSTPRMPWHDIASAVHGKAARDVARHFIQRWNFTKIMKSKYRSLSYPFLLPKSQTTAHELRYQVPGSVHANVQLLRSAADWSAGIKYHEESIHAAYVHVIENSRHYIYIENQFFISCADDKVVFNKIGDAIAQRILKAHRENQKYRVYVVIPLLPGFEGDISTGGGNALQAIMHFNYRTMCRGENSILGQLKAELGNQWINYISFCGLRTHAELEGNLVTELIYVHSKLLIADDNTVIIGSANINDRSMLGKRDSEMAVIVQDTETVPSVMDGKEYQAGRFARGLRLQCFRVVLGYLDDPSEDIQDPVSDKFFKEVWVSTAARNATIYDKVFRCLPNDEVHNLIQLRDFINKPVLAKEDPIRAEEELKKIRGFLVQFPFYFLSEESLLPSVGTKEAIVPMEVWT

T2 sequence (P11940 whole entry): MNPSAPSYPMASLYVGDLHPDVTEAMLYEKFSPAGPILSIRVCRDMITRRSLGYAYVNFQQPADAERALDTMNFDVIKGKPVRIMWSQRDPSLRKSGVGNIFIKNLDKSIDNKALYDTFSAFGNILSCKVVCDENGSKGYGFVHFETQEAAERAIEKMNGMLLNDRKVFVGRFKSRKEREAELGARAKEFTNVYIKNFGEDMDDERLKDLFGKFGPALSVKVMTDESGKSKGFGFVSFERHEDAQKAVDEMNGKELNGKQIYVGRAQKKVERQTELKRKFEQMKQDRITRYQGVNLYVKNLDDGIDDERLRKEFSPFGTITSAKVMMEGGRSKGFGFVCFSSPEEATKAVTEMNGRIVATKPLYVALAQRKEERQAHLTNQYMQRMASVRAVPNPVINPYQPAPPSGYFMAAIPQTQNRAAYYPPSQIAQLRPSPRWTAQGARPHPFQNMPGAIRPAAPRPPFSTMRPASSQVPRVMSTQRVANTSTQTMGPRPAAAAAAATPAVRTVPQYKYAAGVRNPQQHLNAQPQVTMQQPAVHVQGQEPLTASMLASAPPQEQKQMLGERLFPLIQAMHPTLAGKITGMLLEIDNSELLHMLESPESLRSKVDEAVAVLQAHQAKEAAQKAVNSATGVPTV
Chain of Phospholipase D2 (O14939 whole entry): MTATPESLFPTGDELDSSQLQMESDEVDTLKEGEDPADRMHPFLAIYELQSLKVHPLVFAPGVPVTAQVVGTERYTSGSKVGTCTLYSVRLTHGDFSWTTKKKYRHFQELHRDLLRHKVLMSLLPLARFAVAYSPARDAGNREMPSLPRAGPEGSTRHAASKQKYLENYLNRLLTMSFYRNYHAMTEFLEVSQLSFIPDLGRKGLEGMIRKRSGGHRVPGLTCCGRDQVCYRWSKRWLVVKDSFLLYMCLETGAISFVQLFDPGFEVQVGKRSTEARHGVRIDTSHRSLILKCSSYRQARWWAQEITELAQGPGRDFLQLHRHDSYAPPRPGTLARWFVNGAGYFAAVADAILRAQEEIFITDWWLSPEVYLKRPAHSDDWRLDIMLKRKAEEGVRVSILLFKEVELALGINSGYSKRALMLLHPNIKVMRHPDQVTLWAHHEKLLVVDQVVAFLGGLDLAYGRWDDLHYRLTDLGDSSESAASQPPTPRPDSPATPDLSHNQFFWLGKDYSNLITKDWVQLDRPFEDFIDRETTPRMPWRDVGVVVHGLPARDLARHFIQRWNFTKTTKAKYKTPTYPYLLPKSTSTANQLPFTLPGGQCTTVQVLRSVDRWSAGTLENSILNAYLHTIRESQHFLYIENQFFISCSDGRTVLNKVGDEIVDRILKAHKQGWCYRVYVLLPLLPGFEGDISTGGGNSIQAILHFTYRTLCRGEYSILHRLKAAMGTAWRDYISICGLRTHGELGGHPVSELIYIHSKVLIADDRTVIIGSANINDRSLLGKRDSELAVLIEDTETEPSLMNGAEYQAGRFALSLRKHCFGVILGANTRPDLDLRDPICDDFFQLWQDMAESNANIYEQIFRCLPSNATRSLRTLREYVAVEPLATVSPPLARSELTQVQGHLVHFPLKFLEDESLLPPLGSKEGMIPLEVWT
Chain of Voltage-gated inwardly rectifying potassium channel KCNH2 (Q12809 whole entry): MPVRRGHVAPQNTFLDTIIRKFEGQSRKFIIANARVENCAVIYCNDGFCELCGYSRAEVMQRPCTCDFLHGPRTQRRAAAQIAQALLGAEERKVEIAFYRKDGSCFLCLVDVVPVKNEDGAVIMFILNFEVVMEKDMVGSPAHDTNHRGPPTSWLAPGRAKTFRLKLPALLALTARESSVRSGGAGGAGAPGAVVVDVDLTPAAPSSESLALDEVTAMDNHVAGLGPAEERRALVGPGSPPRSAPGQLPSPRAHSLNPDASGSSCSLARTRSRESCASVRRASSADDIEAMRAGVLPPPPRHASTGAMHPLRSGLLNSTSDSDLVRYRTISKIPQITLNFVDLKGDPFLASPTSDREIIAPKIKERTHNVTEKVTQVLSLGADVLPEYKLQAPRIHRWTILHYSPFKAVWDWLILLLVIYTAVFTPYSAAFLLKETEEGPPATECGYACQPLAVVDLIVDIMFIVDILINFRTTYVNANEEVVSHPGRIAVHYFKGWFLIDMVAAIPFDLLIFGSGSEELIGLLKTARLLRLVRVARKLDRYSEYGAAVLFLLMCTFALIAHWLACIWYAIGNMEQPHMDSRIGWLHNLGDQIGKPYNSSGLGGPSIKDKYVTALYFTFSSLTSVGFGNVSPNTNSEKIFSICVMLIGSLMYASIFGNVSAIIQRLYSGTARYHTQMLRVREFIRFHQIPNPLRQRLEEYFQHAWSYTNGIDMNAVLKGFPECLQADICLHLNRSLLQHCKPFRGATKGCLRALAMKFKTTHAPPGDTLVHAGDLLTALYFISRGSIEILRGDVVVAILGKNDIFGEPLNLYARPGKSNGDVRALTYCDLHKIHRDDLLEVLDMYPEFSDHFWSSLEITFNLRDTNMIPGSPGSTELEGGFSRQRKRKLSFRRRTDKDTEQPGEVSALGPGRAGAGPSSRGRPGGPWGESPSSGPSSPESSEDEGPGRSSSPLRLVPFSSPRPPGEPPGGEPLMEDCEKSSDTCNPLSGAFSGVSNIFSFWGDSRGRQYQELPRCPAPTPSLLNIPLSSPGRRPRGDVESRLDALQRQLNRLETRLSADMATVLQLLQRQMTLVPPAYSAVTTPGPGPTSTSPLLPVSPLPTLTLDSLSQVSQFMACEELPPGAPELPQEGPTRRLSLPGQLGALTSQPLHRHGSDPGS
Chain of Latent membrane protein 1 (P03230 whole entry): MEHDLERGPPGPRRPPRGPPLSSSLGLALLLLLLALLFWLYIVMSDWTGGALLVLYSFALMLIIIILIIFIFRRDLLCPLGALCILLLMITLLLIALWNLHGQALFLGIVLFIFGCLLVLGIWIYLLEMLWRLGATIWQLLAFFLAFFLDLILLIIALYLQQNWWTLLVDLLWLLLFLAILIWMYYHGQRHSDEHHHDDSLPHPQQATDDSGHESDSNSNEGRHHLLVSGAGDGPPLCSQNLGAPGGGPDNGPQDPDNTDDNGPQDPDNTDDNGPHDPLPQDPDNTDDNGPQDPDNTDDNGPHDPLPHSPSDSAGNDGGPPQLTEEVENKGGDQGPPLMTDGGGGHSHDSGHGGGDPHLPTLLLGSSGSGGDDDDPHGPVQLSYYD
Chain of Luciferin 4-monooxygenase (P08659 whole entry): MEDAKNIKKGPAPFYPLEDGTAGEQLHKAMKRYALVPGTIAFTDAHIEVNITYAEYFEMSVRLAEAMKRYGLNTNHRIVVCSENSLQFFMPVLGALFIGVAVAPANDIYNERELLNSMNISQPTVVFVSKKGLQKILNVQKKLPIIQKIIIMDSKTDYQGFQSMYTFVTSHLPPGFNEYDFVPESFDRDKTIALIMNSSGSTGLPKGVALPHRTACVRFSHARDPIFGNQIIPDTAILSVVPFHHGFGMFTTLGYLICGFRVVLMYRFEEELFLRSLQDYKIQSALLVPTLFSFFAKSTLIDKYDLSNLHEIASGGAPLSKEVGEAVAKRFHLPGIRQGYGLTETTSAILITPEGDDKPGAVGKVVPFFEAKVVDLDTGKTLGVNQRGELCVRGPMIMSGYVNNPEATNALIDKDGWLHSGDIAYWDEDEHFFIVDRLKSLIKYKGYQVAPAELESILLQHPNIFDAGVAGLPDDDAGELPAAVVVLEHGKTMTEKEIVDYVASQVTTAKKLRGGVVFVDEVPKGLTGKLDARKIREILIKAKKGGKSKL
Chain of Nonstructural protein 1 (Q194T2 whole entry, the tested form may be a part): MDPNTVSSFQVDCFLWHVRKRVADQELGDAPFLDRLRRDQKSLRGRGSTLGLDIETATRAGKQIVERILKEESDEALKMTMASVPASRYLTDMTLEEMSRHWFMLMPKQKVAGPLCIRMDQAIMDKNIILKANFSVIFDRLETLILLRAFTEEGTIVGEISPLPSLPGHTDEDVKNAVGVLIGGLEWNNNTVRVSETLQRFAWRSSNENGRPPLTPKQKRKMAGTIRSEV

COc1ccc(C(=O)Nc2ccc3[nH]ccc3c2)cc1
active: EC50 [1] 5.61 µM | EC50 [2] 7.91 µM | AC50 [3] 27.2 µM | EC50 [4] 3.28 µM | AC50 [5] 2.59 µM | EC50 [6] 13.6 µM

c1ccc(Nc2ccc(Nc3ccccc3)cc2)cc1
inconclusive: AC50 [8] 50.1 µM | AC50 [9] 20 µM
active: AC50 [7] 43.6 µM

CCCCN1C(=O)/C(=C2\SC(N3CCCCC3)=NC2=O)c2ccccc21
active: IC50 [11] 27.4 µM | AC50 [7] 37.9 µM | IC50 [13] 1.54 µM | IC50 [14] 2.13 µM
inactive: IC50 [10] > 66 µM | IC50 [12] > 66 µM

CC1(C)CC(=O)C2=C(C1)OC1=C(C(=O)CC(C)(C)C1)C2c1ccc(O)cc1O
inactive: EC50 [15] > 40 µM
active: EC50 [16] 7.07 µM | EC50 [17] 5.63 µM | IC50 [18] 1.36 µM | IC50 [19] 9.76 µM | CC50 [20] 50 µM | AC50 [21] 6.76 µM

Cc1ccc(C(=O)N[C@@H](C)CN2CCC(n3c(=O)[nH]c4cc(Cl)ccc43)CC2)cc1
active: IC50 [22] 1.05 µM | IC50 [23] 0.011 µM
